In patent US10822317B2, “Methods and compositions for wound healing” (QBiotics Limited, priority 2013, dated 2020):

How the values were obtained:
[1] = test system: TGF-β1-stimulated dermal fibroblasts; assay: Differentiation of adult dermal fibroblasts into myofibroblasts (α-SMA expression); format: cell-based, human
Experimental: The effects of Compounds […] and 37 on dermal fibroblast differentiation to myofibroblasts was examined by the extent of α-SMA expression by TGF-βi-stimulated dermal fibroblasts.
Following trypsinization, fibroblasts were seeded in 8-well, Permanoxchamber slides (VWR International) in DMEM medium, containing antibiotics, 2 mM L-glutamine and 10% foetal calf serum (250 μL, all purchased from Invitrogen); at a cell density of 2.5×10^4 cells/well and maintained at 37° C. in 5% CO2/95% air for 48 h.
At 48 hr, fibroblasts were growth-arrested in serum-free DMEM for 48 hr and then replaced with serum-free DMEM (250 μL), containing Compounds 1 or 37 at concentrations of 0, 0.001, 0.01, 0.1, 1.0 and 10.0 μg/mL (3 wells/concentration/compound) and TGF-β1 (10 ng/ml, Peprotech). Fibroblasts were maintained at 37° C. in 5% CO2/95% air for 72 hr.
At 72 hr, chamber slide wells were washed with PBS (×1, 250 μL) and fixed in 4% paraformaldehyde (100 μL/well) for 10 min. The chamber slide wells were then washed again with PBS (×1, 250 μl), treated with 0.1% Triton X-100 in PBS (100 μL, Sigma) for 5 min and re-washed with PBS (×1, 250 μL). Wells were blocked with 1% BSA in PBS (250 μL, Sigma) for 1 h and washed (×3) in 0.1% BSA/PBS.
Wells were incubated with monoclonal mouse anti-human α-SMA, clone 1A4 (1:100, 150 ul, Sigma) at 4° C. overnight, washed (×6) in 0.1% BSA/PBS and incubated with Alexa Fluor 488 goat anti-mouse IgG antibody (1:1000, 250 μL, Invitrogen), at room temperature for 1 h, under darkness. Chamber slides were washed (×6) in 0.1% BSA/PBS and counterstained with Hoescht 33258 solution for 30 min under darkness (1:2000, 250 μL, Sigma). Chamber were subsequently removed for slides and treated with Fluorsave (Santa Cruz) for 10 min under darkness. Slides were viewed by fluorescence microscopy (Leica Microsystem), with digital images being capturedat ×200 magnification. Digital images were processed using HC Image J Software.

[2] = test system: immortalised human keratinocyte cells (HaCaT); assay: Scratch repopulation and closure with HaCaT; format: cell-based; details: 48 hours; for % of scratch wound area remaining open after treatment: ± standard error
Experimental: The ability of immortalised human keratinocyte cells (HaCaT) to migrate across a scratch wound made in a confluent monolayer following treatment with either Compound 1 or Compound 37 was determined by the following method.
Trypsinised HaCaT cells were seeded at a cell density of 7.4×10^4 cells/mL in 24-well BD Falcon flat-bottomed, tissue culture plates (VWR International, UK) in 1 mL Dulbecco's Modified Eagle Medium (DMEM), supplemented with L-glutamine (2 mM), antibiotics (100 U/mL penicillin G sodium, 100 μg/mL streptomycin sulphate and 0.25 μg/mL amphotericin B); and 10% foetal calf serum (all Invitrogen Ltd., UK) to give a cell density of 7.4×10^4 cells seeded in each well. The cells were then maintained at 37° C. in a 5% CO2/95% air atmosphere overnight. The following morning, the 10% foetal calf serum-containing DMEM was replaced with serum-free DMEM and the HaCaT cells were subsequently serum-starved in DMEM for 48 hr.
After 48 hr, the serum-free DMEM was removed and a single scratch ‘wound’ made with a sterile pipette across each cell layer. Following washing twice in 1 mL PBS, Compound 1- or Compound 37-containing medium (1 mL) was added to each well. This medium consisted of DMEM, supplemented with L-glutamine (2 mM), antibiotics (as above) and 1% foetal calf serum, in addition to Compound 1 or Compound 37 at final concentrations of 0, 0.001, 0.01, 0.1, 1.0, 10 or 100 μg/mL. There were three replicate wells per concentration for each compound.
The HaCaT cultures were maintained at 37° C. in a 5% CO2/95% air atmosphere and the repopulation of the denuded ‘wound’ areas monitored by Time-Lapse Confocal Microscopy (Leica TCS SP5 Confocal Microscope; Leica Microsystems UK Ltd., UK) at 100× magnification, with digital images captured at fixed positions every 20 min over a 48 h period. The digital image sequences were exported and prepared as .avi movie files, using LAS AF Software (Leica Microsystems). The rates of HaCaT wound closure in vitro were quantified using ImageJ Software (ImageJ 1.37v; http://rsb.info.nih.gov/ij/). The data was analysed by One Way Analysis of Variance with post-test Tukey analysis. Each experiment was performed on 3 separate occasions.

HaCaT cells [3] = assay: HaCaT scratch repopulation with Mitomycin C (migration study); format: cell-based, human; details: with 1 μg/mL Mitomycin C; 0.001 to 1.0 μg/mL; p<0.05
HaCaT cells [4] = assay: HaCaT proliferation (MTT); format: cell-based, human; design: dose or concentration left out as unconfirmed; details: 24, 48, 120 and 168 hr; p<0.01
Excerpt: The proliferation experiment assessed the effects of the two compounds on HaCaT proliferation (as measured by MTT) in the culture system at 4 time periods (24, 48, 120 and 168 hr).

CC=C(C)C(=O)OC1C(C)C2(O)C(C(O)C3(CO)OC3C3(O)C(=O)C(C)=CC32)C2C(C)(C)C12OC(=O)C(C)CC (centres unmarked) [Compound 37, 12-tigloyl-13-(2-methylbutanoyl)-5,6-epoxy-4,5,9,12,13,20-hexahydroxy-1-tigliaen-3-one]
differentiation of TGF-β1-treated adult dermal fibroblasts into myofibroblasts ([1]; 0.001 to 10.0 μg/mL, 72 hr): affected differentiation into myofibroblasts in a concentration-dependent manner | myofibroblast morphology ([1]; 0.1 to 1.0 μg/mL): subtle alterations in myofibroblast morphology | α-SMA stress fibre formation and polygonal morphology development ([1]; TGF-β1 10 ng/ml, 72 hr, 10 μg/mL): disruptive effect on α-SMA stress fibre formation and polygonal morphology development | % of scratch wound area remaining open after treatment ([2]; 0.001 μg/ml): 4.3 ± 4.1% | % of scratch wound area remaining open after treatment ([2]; 0.01 μg/ml): 0.9 ± 1.5% | % of scratch wound area remaining open after treatment ([2]; 0.1 μg/ml): 2.2 ± 3.4% | % of scratch wound area remaining open after treatment ([2]; 1.0 μg/ml): 30.0 ± 5.3% | % of scratch wound area remaining open after treatment ([2]; 10 μg/ml): 37.1 ± 7.1% | rate of scratch closure compared to the control treatment ([2]; 0.001, 0.01, 0.1 and 1.0 μg/ml, p<0.01): increased | scratch repopulation and closure (migration study) (HaCaT cells [3]): enhanced | proliferation of HaCaT cells (MTT) vs control with no compound (HaCaT cells [4]): increasing proliferation
